The source of these data is patent US7244741B2, “Fredericamycin derivatives as medicaments for treating tumours” (Biofrontera Discovery GmbH, priority 2002, dated 2007).

For the experiment, the system named is 12 cancer cell lines: LCL (H460/lung), MACL (MCF7, breast), LXFL (529L, lung), LXFA (629L, lung), MEXF (462NL, melanoma), MEXF (514L, melanoma), MAXF (401NL …). The experiment can be described thus: Biological activity against 12 cancer cell lines (IC70 averaged over all cell lines). It is filed as cell-based. To be noted: mean over 12 cancer cell lines; 5 test concentrations. On the procedure: Biological Activity Against 12 Cancer Cell Lines: LCL (H460/lung), MACL (MCF7, breast), LXFL ([…], lung), LXFA ([…], lung), MEXF (462NL, melanoma), MEXF ([…], melanoma), MAXF (401NL, breast), RXF ([…], renal), RXF ([…], renal), UXF ([…], uterus), […]1). Efficacy (IC70), averaged over all cell lines in μg/ml with 5 test concentrations.
As to `COc1cccc2c1C(=O)c1c(O)c3c(c(O)c1C2=O)C[C@@](O)(C(=O)CO)C[C@@H]3O[C@H]1C[C@H](N)[C@H](O)[C@H](C)O1` [Adriamycin], the “Efficacy (IC70), averaged over all cell lines” value (“Efficacy … over all cell lines” below) stood at 0.0210 µg/mL.
For the compound `N.N.[Cl][Pt][Cl]` [Cisplatin], the “Efficacy … over all cell lines” value came out at 37.1020 µg/mL.
Take `C/C=C/C=C/c1cc2cc3c(c(O)c2c(=O)[nH]1)[C@@]1(C(=O)c2c(O)c4c(c(O)c2C1=O)C(=O)C(OC)=CC4=O)C(SCCO)C3` (stereo partly drawn) [Example 3, (8S)-4′,9,9′-trihydroxy-6′-methoxy-7(2-hydroxyethylmercapto)-3-[(1E,3E)-penta-1,3-dienyl]-6,7-dihydrospiro[cyclopenta[g]isoquinoline-8,2′-cyclopenta[b]-napthalene]-1,1′-3′,5′,8′(2H)-pentone]: the “Efficacy … over all cell lines” value came out at 0.1340 µg/mL.
The same measure for `C/C=C/C=C/c1cc2cc3c(c(O)c2c(=O)[nH]1)C1(CC3)C(=O)c2c(O)c3c(c(O)c2C1=O)C(=O)C(OC)=CC3=O` (stereo not shown) [Fredericamycin]: 0.2790 µg/mL.
